Test results from paper PMC7435600, “Flavonoids and Terpenoids with PTP-1B Inhibitory Properties from the Infusion of Salvia amarissima Ortega” (Molecules, 2020).

Assays:
[1] = parameters: method as in doi:10.17129/botsci.2187; conditions: cited from earlier work
[2] = biological target: T1, protein tyrosine phosphatase 1B (PTP-1B) (Homo sapiens, UniProt P18031); assay: Protein tyrosine phosphatase 1B inhibition assay (pNPP); format: biochemical; conditions: for IC50: hPTP-1B, pNPP substrate, three independent determinations, read-out: PTP-1B inhibitory activity expressed as IC50 (converted)
T1 construct: made in house
T1 sequence (P18031 1-435): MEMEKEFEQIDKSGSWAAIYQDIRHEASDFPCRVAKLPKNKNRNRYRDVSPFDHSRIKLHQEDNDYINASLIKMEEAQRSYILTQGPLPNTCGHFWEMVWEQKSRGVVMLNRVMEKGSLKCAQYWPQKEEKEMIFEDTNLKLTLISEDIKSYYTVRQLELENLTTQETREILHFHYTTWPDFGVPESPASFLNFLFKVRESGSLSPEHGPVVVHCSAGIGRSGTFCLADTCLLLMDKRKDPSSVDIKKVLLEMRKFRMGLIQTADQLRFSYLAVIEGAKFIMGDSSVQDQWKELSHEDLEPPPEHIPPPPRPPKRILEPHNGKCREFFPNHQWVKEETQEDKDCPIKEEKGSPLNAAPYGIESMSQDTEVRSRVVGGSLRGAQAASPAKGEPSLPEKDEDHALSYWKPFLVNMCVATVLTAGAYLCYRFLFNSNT
Experimental: The expression and purification of hPTP-1B was performed as previously described. […] Aliquots of 0–10 μL of testing materials (triplicated) were incubated for 5 min with 20 μL of enzyme stock solution in Tris-HCl (22 nM). After incubation, 10 μL of p-nitrophenylphosphate (pNPP; 5 mM) was added and further incubated for 15 min at 25 °C; then, the absorbance was determined (λmax 415 nm). For all samples, the inhibitory activity was determined as a percentage in comparison to the blank (Tris-HCl) according to the following equation:(1) % PTP1B=(1−A415t/A415C)×100 where % PTP-1B is the percentage of inhibition, A415t is the corrected absorbance of the extracts, fraction, or compounds under testing (A415end − A415initial) and A415C is the absorbance of the blank (A415end blank − A415initial blank).

mammal α-glucosidases = tested on: mammal α-glucosidases; parameters: method as in PMID 28422509; conditions: cited from earlier work
PTP-1B = tested on: PTP-1B; parameters: method as in PMID 22940448; conditions: other studies; cited from earlier work

Structure (SMILES) | IC50 [2] | further results
O=c1cc(-c2ccc(O)c(O)c2)oc2cc(O)c(O)c(O)c12 [Compound 3, 6-hydroxyluteolin] | 80.1 µM | –
C[C@@H]1O[C@@H](OC[C@H]2O[C@@H](Oc3c(-c4ccc(O)c(O)c4)oc4cc(O)cc(O)c4c3=O)[C@H](O)[C@@H](O)[C@@H]2O)[C@H](O)[C@H](O)[C@H]1O [Compound 4, rutin] | 323 µM | –
O=c1c(O[C@@H]2O[C@H](CO)[C@@H](O)[C@H](O)[C@H]2O)c(-c2ccc(O)c(O)c2)oc2cc(O)cc(O)c12 [Compound 6, isoquercitrin] | 260 µM | –
C[C@H]1[C@H](C)CC[C@]2(C(=O)O)CC[C@]3(C)C(=CC[C@@H]4[C@@]5(C)CC[C@H](O)C(C)(C)[C@@H]5CC[C@]43C)[C@H]12 [UA, ursolic acid, reference compound] | – | IC50 (PTP-1B): […]; times more active than compound 7 experimentally ([2]; ratio of PTP-1B IC50, UA vs compound 7): 2.2 times

Second part, led by results:

IC50 [2] | Structure (SMILES) | further results
280 µM | CC1CCC23COC(=O)C2=CC(OC2OC(CO)C(O)C(O)C2O)CC3C1(C)CCc1ccoc1 (stereo not drawn) [Compound 1, amarisolide] | antinociceptive properties [1]: demonstrated; inhibitory activity against mammal α-glucosidases (mammal α-glucosidases; in vitro and in vivo): showed inhibitory activity; inhibition of α-glycosidases in vivo (mammal α-glucosidases): inhibited
189 µM | COc1cc(-c2cc(=O)c3c(O)c(O)c(OC)cc3o2)ccc1O [Compound 2, 5,6,4′-trihydroxy-7,3′-dimethoxyflavone] | –
137 µM | O=C(/C=C/c1ccc(O)c(O)c1)O[C@H](Cc1ccc(O)c(O)c1)C(=O)O [Compound 5, rosmarinic acid] | –
62 µM | COc1cc2oc(-c3ccc(O)c(O)c3)cc(=O)c2c(O)c1O [Compound 7, pedalitin] | antinociceptive properties [1]: demonstrated; inhibition of α-glycosidases in vivo (mammal α-glucosidases): inhibited
514 µM | C[C@@H]1CC[C@@]23COC(=O)C2=C[C@@H](O[C@@H]2O[C@H](CO)[C@@H](O)[C@H](O)[C@H]2O)C[C@@H]3[C@@]1(C)CCC1=CC(=O)OC1O (stereo partly drawn) [Compound 8a,b, (2S,5S,8R,9R,10R,14R,S)-2-(O-β-D-glucopyranosyl)-neo-clerodan-14-hydroxy-3, 13-diene-14,15;18,19-diolide] | –
